Source: ChEMBL document CHEMBL5608163, “Structure modification of anoplin for fighting resistant bacteria” (Eur J Med Chem, 2024)
≈ marks a conversion by molar mass, not a printed value. Numbered stars: 1 amine (or outer) side, 2 acyl side, 3 side chain; on linkers, the order of the positions; unused ones are H or OH. Square brackets hold non-standard residues; d marks the D form. Peptide text beside a SMILES is read from it. * marks the point of attachment. X3 = O=C(CN(CC(c1ccccc1)c1ccccc1)[*:1])[*:2]; NCyclohexylmethylGly = O=C(O)CNCC1CCCCC1; Pentadecanoyl = CCCCCCCCCCCCCCC(=O)*; NMeR = CN[C@@H](CCCNC(=N)N)C(=O)O; X2 = CCC(C)N(CC(=O)[*:2])[*:1]; NMeK = CN[C@@H](CCCCN)C(=O)O; Nonanoyl = CCCCCCCCC(=O)*; Nphe = O=C(O)CNCc1ccccc1; NBuGly = CCCCNCC(=O)O; Nleu = CC(C)CNCC(=O)O

Legend:
Escherichia coli [1] = assay: Antibacterial activity against Escherichia coli ATCC 25922 assessed as reduction in bacterial growth measured after 24 hrs by Mueller-Hinton broth based two-fold serial dilution method; type: functional
Staphylococcus aureus [2] = assay: Antibacterial activity against Staphylococcus aureus ATCC 25923 assessed as reduction in bacterial growth measured after 24 hrs by Mueller-Hinton broth based two-fold serial dilution method; type: functional
Staphylococcus aureus [3] = assay: Antimicrobial activity against Staphylococcus aureus assessed as reduction in microbial growth by broth microdilution method; type: functional
Escherichia coli [4] = assay: Antimicrobial activity against Escherichia coli assessed as reduction in microbial growth by broth micro-dilution method; type: functional
Erythrocyte = assay: Hemolytic activity in mouse RBC; type: toxicity, cell-based
Bacillus subtilis = assay: Antibacterial activity against Bacillus subtilis ATCC 23857 assessed as reduction in bacterial cell growth measured for 18 hrs by Mueller-Hinton broth based two-fold serial dilution method; type: functional
Pseudomonas aeruginosa = assay: Antibacterial activity against Pseudomonas aeruginosa ATCC 27853 assessed as reduction in bacterial cell growth measured for 18 hrs by Mueller-Hinton broth based two-fold serial dilution method; type: functional
Escherichia coli [5] = assay: Antibacterial activity against Escherichia coli ATCC 25922 assessed as reduction in bacterial cell growth measured for 18 hrs by Mueller-Hinton broth based two-fold serial dilution method; type: functional
[6] = Hemolytic activity in mouse Red blood cells incubated for 1 hr by microplate reader assay; type: toxicity, cell-based, Erythrocyte; conditions: red blood cells
Klebsiella pneumoniae = assay: Antibacterial activity against Klebsiella pneumoniae ATCC 700603 assessed as reduction in bacterial cell growth measured for 18 hrs by Mueller-Hinton broth based two-fold serial dilution method; type: functional
[7] = Hemolytic activity in mouse erythrocyte incubated for 1 hr by microplate reader analysis; type: toxicity, cell-based; conditions: erythrocytes
Staphylococcus aureus [8] = assay: Antibacterial activity against Staphylococcus aureus ATCC 25923 assessed as reduction in bacterial cell growth measured for 18 hrs by Mueller-Hinton broth based two-fold serial dilution method; type: functional

Compound	MIC (Escherichia coli [1]) [µM]	MIC (Staphylococcus aureus [2]) [µM]	MIC (Staphylococcus aureus [3]) [µM]	MIC (Escherichia coli [4]) [µM]	HC10 (Erythrocyte) [µM]	further results
CC(C)C[C@H](NC(=O)CN)C(=O)N[C@@H](CC(C)C)C(=O)N[C@@H](CCCCN)C(=O)N[C@@H](CCCNC(=N)N)C(N)=O (H-GLLKR-NH2)	53.2 (≈ 31.1 µg/mL)	> 53.2	–	–	–	–
CC[C@H](C)[C@H](NC(=O)[C@H](CCCNC(=N)N)NC(=O)[C@H](CCCCN)NC(=O)[C@H](CC(C)C)NC(=O)[C@H](CC(C)C)NC(=O)CN)C(N)=O (H-GLLKRI-NH2)	54.6 (≈ 38.1 µg/mL)	> 54.6	–	–	–	–
CC[C@H](C)[C@H](NC(=O)[C@H](CCCNC(=N)N)NC(=O)[C@H](CCCCN)NC(=O)[C@H](CC(C)C)NC(=O)[C@H](CC(C)C)NC(=O)CN)C(=O)N[C@@H](CCCCN)C(N)=O (H-GLLKRIK-NH2)	33.9 (≈ 28 µg/mL)	> 33.9	–	–	–	–
CC[C@H](C)[C@H](NC(=O)[C@H](CCCNC(=N)N)NC(=O)[C@H](CCCCN)NC(=O)[C@H](CC(C)C)NC(=O)[C@H](CC(C)C)NC(=O)CN)C(=O)N[C@@H](CCCCN)C(=O)N[C@H](C(N)=O)[C@@H](C)O (H-GLLKRIKT-NH2)	24.8 (≈ 23 µg/mL)	> 24.8	–	–	–	–
CC[C@H](C)[C@H](NC(=O)[C@H](CCCNC(=N)N)NC(=O)[C@H](CCCCN)NC(=O)[C@H](CC(C)C)NC(=O)[C@H](CC(C)C)NC(=O)CN)C(=O)N[C@@H](CCCCN)C(=O)N[C@H](C(=O)N[C@@H](CC(C)C)C(=O)N[C@@H](CC(C)C)C(=O)O)[C@@H](C)O (H-GLLKRIKTLL-OH)	41.4 (≈ 47.8 µg/mL)	> 41.4	–	–	–	–
CC[C@H](C)[C@H](NC(=O)[C@H](CCCNC(=N)N)NC(=O)[C@@H](N)CCCCN)C(=O)N[C@@H](CCCCN)C(=O)N[C@H](C(=O)N[C@@H](CC(C)C)C(=O)N[C@@H](CC(C)C)C(N)=O)[C@@H](C)O (H-KRIKTLL-NH2)	70.2 (≈ 61.1 µg/mL)	> 70.2	–	–	–	–
CC[C@H](C)[C@H](NC(=O)[C@H](CCCNC(=N)N)NC(=O)[C@H](CCCCN)NC(=O)[C@@H](N)CC(C)C)C(=O)N[C@@H](CCCCN)C(=O)N[C@H](C(=O)N[C@@H](CC(C)C)C(=O)N[C@@H](CC(C)C)C(N)=O)[C@@H](C)O (H-LKRIKTLL-NH2)	31.6 (≈ 31 µg/mL)	> 31.6	–	–	–	–
CC[C@H](C)[C@H](NC(=O)[C@H](CCCNC(=N)N)NC(=O)[C@H](CCCCN)NC(=O)[C@H](CC(C)C)NC(=O)[C@@H](N)CC(C)C)C(=O)N[C@@H](CCCCN)C(=O)N[C@H](C(=O)N[C@@H](CC(C)C)C(=O)N[C@@H](CC(C)C)C(N)=O)[C@@H](C)O (H-LLKRIKTLL-NH2)	54.7 (≈ 60 µg/mL)	> 54.7	–	–	–	–
CCCCNCC(=O)N[C@@H](CC(C)C)C(=O)N[C@@H](CC(C)C)C(=O)N[C@@H](CCCCN)C(=O)N[C@@H](CCCNC(=N)N)C(=O)N[C@H](C(=O)N[C@@H](CCCCN)C(=O)N[C@H](C(=O)N[C@@H](CC(C)C)C(=O)N[C@@H](CC(C)C)C(N)=O)[C@@H](C)O)[C@@H](C)CC (H-[NBuGly]LLKRIKTLL-NH2)	–	–	> 100	100	> 50	–
CC[C@H](C)[C@H](NC(=O)[C@H](CCCNC(=N)N)NC(=O)[C@H](CCCCN)NC(=O)[C@H](CC(C)C)NC(=O)[C@H](CC(C)C)NC(=O)CNCC1CCCCC1)C(=O)N[C@@H](CCCCN)C(=O)N[C@H](C(=O)N[C@@H](CC(C)C)C(=O)N[C@@H](CC(C)C)C(N)=O)[C@@H](C)O (H-[NCyclohexylmethylGly]LLKRIKTLL-NH2)	–	–	50	25	> 50	–
CC[C@H](C)[C@H](NC(=O)[C@H](CCCNC(=N)N)NC(=O)[C@H](CCCCN)NC(=O)[C@H](CC(C)C)NC(=O)[C@H](CC(C)C)NC(=O)CNCC(C)C)C(=O)N[C@@H](CCCCN)C(=O)N[C@H](C(=O)N[C@@H](CC(C)C)C(=O)N[C@@H](CC(C)C)C(N)=O)[C@@H](C)O (H-[Nleu]LLKRIKTLL-NH2)	–	–	> 100	> 100	> 50	–
CC[C@H](C)[C@H](NC(=O)[C@H](CCCNC(=N)N)NC(=O)[C@H](CCCCN)NC(=O)[C@H](CC(C)C)NC(=O)[C@H](CC(C)C)NC(=O)CNCc1ccccc1)C(=O)N[C@@H](CCCCN)C(=O)N[C@H](C(=O)N[C@@H](CC(C)C)C(=O)N[C@@H](CC(C)C)C(N)=O)[C@@H](C)O (H-[Nphe]LLKRIKTLL-NH2)	–	–	> 100	50	> 50	–
CCC(C)NCC(=O)N[C@@H](CC(C)C)C(=O)N[C@@H](CC(C)C)C(=O)N[C@@H](CCCCN)C(=O)N[C@@H](CCCNC(=N)N)C(=O)N[C@H](C(=O)N[C@@H](CCCCN)C(=O)N[C@H](C(=O)N[C@@H](CC(C)C)C(=O)N[C@@H](CC(C)C)C(N)=O)[C@@H](C)O)[C@@H](C)CC (some centres not stated) (H-[X2]LLKRIKTLL-NH2)	–	–	> 100	> 100	> 50	–
CC[C@H](C)[C@H](NC(=O)[C@H](CCCNC(=N)N)NC(=O)[C@H](CCCCN)NC(=O)[C@H](CC(C)C)NC(=O)[C@H](CC(C)C)NC(=O)CNCC(c1ccccc1)c1ccccc1)C(=O)N[C@@H](CCCCN)C(=O)N[C@H](C(=O)N[C@@H](CC(C)C)C(=O)N[C@@H](CC(C)C)C(N)=O)[C@@H](C)O (H-[X3]LLKRIKTLL-NH2)	–	–	25	12.5	> 50	–
CCCCCCCCC(=O)NCC(=O)N[C@@H](CC(C)C)C(=O)N[C@@H](CC(C)C)C(=O)N[C@@H](CCCCN)C(=O)N(C)[C@@H](CCCNC(=N)N)C(=O)N[C@H](C(=O)N(C)[C@@H](CCCCN)C(=O)N[C@H](C(=O)N[C@@H](CC(C)C)C(=O)N[C@@H](CC(C)C)C(N)=O)[C@@H](C)O)[C@@H](C)CC (Nonanoyl-GLLK[NMeR]I[NMeK]TLL-NH2)	–	–	–	–	–	MIC (Bacillus subtilis): 8 µM (≈ 10.6 µg/mL); MIC (Pseudomonas aeruginosa): 32 µM (≈ 42.3 µg/mL); MIC (Escherichia coli [5]): 128 µM (≈ 169 µg/mL); HC50 at 1 h [6]: > 256 µM; MIC (Klebsiella pneumoniae): > 128 µM; HC50 at 1 h [7]: > 256 µM; MIC (Staphylococcus aureus [8]): 128 µM (≈ 169 µg/mL)
CCCCCCCCC(=O)NCC(=O)N[C@@H](CC(C)C)C(=O)N[C@@H](CC(C)C)C(=O)N(C)[C@@H](CCCCN)C(=O)N[C@@H](CCCNC(=N)N)C(=O)N[C@H](C(=O)N(C)[C@@H](CCCCN)C(=O)N[C@H](C(=O)N[C@@H](CC(C)C)C(=O)N[C@@H](CC(C)C)C(N)=O)[C@@H](C)O)[C@@H](C)CC (Nonanoyl-GLL[NMeK]RI[NMeK]TLL-NH2)	–	–	–	–	–	MIC (Bacillus subtilis): 16 µM (≈ 21.1 µg/mL); MIC (Pseudomonas aeruginosa): 32 µM (≈ 42.3 µg/mL); MIC (Escherichia coli [5]): 128 µM (≈ 169 µg/mL); HC50 at 1 h [6]: > 256 µM; MIC (Klebsiella pneumoniae): > 128 µM; HC50 at 1 h [7]: > 256 µM; MIC (Staphylococcus aureus [8]): 128 µM (≈ 169 µg/mL)
CCCCCCCCCCCCCCC(=O)NCC(=O)N[C@@H](CC(C)C)C(=O)N[C@@H](CC(C)C)C(=O)N[C@@H](CCCCN)C(=O)N(C)[C@@H](CCCNC(=N)N)C(=O)N[C@H](C(=O)N(C)[C@@H](CCCCN)C(=O)N[C@H](C(=O)N[C@@H](CC(C)C)C(=O)N[C@@H](CC(C)C)C(N)=O)[C@@H](C)O)[C@@H](C)CC (Pentadecanoyl-GLLK[NMeR]I[NMeK]TLL-NH2)	–	–	–	–	–	MIC (Bacillus subtilis): 8 µM (≈ 11.2 µg/mL); MIC (Pseudomonas aeruginosa): 16 µM (≈ 22.5 µg/mL); MIC (Escherichia coli [5]): 16 µM (≈ 22.5 µg/mL); HC50 at 1 h [6]: 64 µM; MIC (Klebsiella pneumoniae): 32 µM (≈ 45 µg/mL); HC50 at 1 h [7]: 64 µM; MIC (Staphylococcus aureus [8]): 16 µM (≈ 22.5 µg/mL)
CCCCCCCCCCCCCCC(=O)NCC(=O)N[C@@H](CC(C)C)C(=O)N[C@@H](CC(C)C)C(=O)N(C)[C@@H](CCCCN)C(=O)N[C@@H](CCCNC(=N)N)C(=O)N[C@H](C(=O)N(C)[C@@H](CCCCN)C(=O)N[C@H](C(=O)N[C@@H](CC(C)C)C(=O)N[C@@H](CC(C)C)C(N)=O)[C@@H](C)O)[C@@H](C)CC (Pentadecanoyl-GLL[NMeK]RI[NMeK]TLL-NH2)	–	–	–	–	–	MIC (Bacillus subtilis): 8 µM (≈ 11.2 µg/mL); MIC (Pseudomonas aeruginosa): 16 µM (≈ 22.5 µg/mL); MIC (Escherichia coli [5]): 16 µM (≈ 22.5 µg/mL); HC50 at 1 h [6]: 64 µM; MIC (Klebsiella pneumoniae): 32 µM (≈ 45 µg/mL); HC50 at 1 h [7]: 64 µM; MIC (Staphylococcus aureus [8]): 8 µM (≈ 11.2 µg/mL)
